# Assay results reported in publication PMC9894685, “Abscisic acid agonists suitable for optimizing plant water use” (Frontiers in Plant Science, 2023).
# Experiments:
# RCAR11-ABI2 [1] = test: Yeast ABA signal pathway LUC reporter, RCAR11-ABI2; assay type: cell-based, Arabidopsis thaliana
# Protocol: (§1) The yeast cultivation and the life luciferase assay were performed as described ([Ruschhaupt et al., 2019]). Briefly, the reporter yeast expressing an ABA-dependent luciferase gene (LUC) was transformed with different combinations of ABA signaling components as indicated. Golden gate cloning ([Binder et al., 2014]) was used to construct pYEAST_LII_5‐6_CEN_URA vector with TDH3 promoter and TDH1 terminator (tTDH1), pYEAST_LII_1‐2_CEN_LEU vector with GK1 promoter and tTDH1, and pYEAST_LII_3‐4_CEN_TRP with the GAL1 promoter (pGAL1) and tTDH1 to express RCARs, PP2Cs, and OST1 (SnRK2.6), respectively ([Ruschhaupt et al., 2019]). The expression of ABF2 in yeast relies on a modified pGREG503 vector, in which pGAL1 ([Jansen et al., 2005]) was replaced by the ADH1 promoter.
# (§2) Colonies of freshly transformed cells were inoculated in 0.5 mL supplemented synthetic dextrose (SD) medium and incubated at 30°C in a gyratory shaker (Thermoshake-THO500, Gerhardt, Königswinter, Germany) at 200 rpm for 16-18 h. After overnight growth, the cells were harvested and washed in SD medium followed by inoculation in SD medium containing 2% galactose for induction of SnRK2 kinases under the control of the GAL1 promoter and supplementation with ligands at indicated concentrations, to an OD600 of 0.2 in flat-bottom 96-well plates (CytoOne, Starlab, Hamburg, Germany). Yeast cultures were incubated at 30°C and 200 rpm for 16-18 h before determination of LUC activity and cell density. Light emission of yeasts was detected in a HIDEX plate luminometer (HIDEX, Turku, Finland) after injection of 100 µL freshly prepared luciferin substrate (1 mM D-luciferin, Promega) provided in 100 mM citric acid, pH 3 ([Leskinen et al., 2003]) for 5 s and was corrected for background. The LUC activity was normalized to the cell density (OD600) measured in 96-well flat plates (Sarstedt, Nümbrecht, Germany). LUC activity is given as the ratio of light emission to OD600 in counts per second.
# Arabidopsis plants = test: Foliar administration and thermal imaging of leaf temperature (transpiration), Arabidopsis; assay type: in vivo, Arabidopsis thaliana
# Protocol: (§3) Thermal imaging was carried out as described ([Yang et al., 2016]). An assessment of the efficacy of ABA and CCPs was conducted by using 35-day-old Arabidopsis and 30-day-old wheat plants. Stock solutions (10 mM) of CCPs and ABA dissolved in dimethyl sulfoxide (DMSO) were diluted to the respective ligand concentrations (10, 30, 100 µM) in water containing 0.01% (v/v) Tween 20. Aqueous Tween 20 solutions supplemented with 0.1%, 0.3%, and 1% DMSO served for mock treatments. The solutions were sprayed onto the leaf surface until the run-off of droplets. One day after application (unless otherwise indicated), thermal imaging was conducted using the InfraTec instrument (IR-TCM 384, InfraTec, Dresden, Germany). The leaf temperature of Arabidopsis was determined as the average temperature of all leaves. The leaf temperature of wheat was determined as described ([Yang et al., 2019]).
# RCAR8-ABI2 = test: In vitro phosphatase assay, ABI2 with RCAR8; assay type: biochemical, Arabidopsis thaliana; conditions: 100 nM ABI2, 200 nM RCAR8
# Protocol: (§4) Expression, purification, and analysis of RCAR and PP2C proteins were performed essentially as described ([Ruschhaupt et al., 2019]). Briefly, the ABA receptors RCAR1, RACR8, and RCAR11 were expressed with an aminoterminal histidine tag using the pSEVA431_LII_6xHIS::RCAR1/RCAR8/RCAR11. ABA coreceptors were expressed as histidine-tagged fusions with the maltose-binding protein using the pSEVA431_LII_6xHIS::MBP::ABI2/HAB1. All constructs were transformed and expressed in Escherichia coli strain BL21 and purified to homogeneity according to supplier’s instruction (GE Healthcare, Chicago, USA). The receptor assay was performed with 100 nM PP2C and a two-fold molar excess of RCAR. Values are means ± SD of three replicates. […] The maximum inhibition was set to 100% in the figures. The phosphatase activity was measured using 4-methylumbelliferyl-phosphate as a substrate ([Meinhard and Grill, 2001]). The increase in fluorescence was recorded over 25 min with excitation and emission wavelengths at 360 and 460 nm, respectively, using a Synergy 2 plate reader (Bio-Tec, Winooski, USA).
# RCAR1-ABI2 = target: T1, RCAR1-ABI2 (Arabidopsis thaliana, UniProt O04719+Q84MC7); test: In vitro phosphatase assay, ABI2 with RCAR1; assay type: biochemical; conditions: for Statistical significance of RCAR1-mediated inhibition of ABI2 phosphatase activity vs ABA: Fig. 3B
# T1 construct: 6xHis (N); made in house; host or cells: Escherichia coli BL21
# T1 sequence (Q84MC7 1-187): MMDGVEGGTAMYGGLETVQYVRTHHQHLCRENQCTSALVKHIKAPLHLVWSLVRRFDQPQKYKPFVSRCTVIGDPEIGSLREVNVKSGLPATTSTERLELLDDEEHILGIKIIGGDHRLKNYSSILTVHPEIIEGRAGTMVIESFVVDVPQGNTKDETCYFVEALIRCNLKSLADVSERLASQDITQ
# T1 sequence (O04719 1-423): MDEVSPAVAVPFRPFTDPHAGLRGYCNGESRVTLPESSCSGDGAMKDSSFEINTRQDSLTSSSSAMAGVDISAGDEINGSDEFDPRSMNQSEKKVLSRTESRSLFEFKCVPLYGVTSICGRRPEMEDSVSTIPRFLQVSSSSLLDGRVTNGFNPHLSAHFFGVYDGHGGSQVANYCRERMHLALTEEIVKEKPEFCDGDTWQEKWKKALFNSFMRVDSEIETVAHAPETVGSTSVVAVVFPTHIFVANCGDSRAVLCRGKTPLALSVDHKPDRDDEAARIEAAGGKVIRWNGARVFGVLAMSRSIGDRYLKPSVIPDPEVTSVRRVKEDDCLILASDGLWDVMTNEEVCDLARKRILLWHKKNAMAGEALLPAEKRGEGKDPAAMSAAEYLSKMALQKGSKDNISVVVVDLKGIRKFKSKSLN
# Protocol: as §4
# RCAR1/PYL9-ABI2 = test: Yeast ABA signal pathway LUC reporter, RCAR1-ABI2; assay type: cell-based, Arabidopsis thaliana
# Protocol: as §1, with “The expression of ABF2 in yeast relies on a modified pGREG503 vector, in which pGAL1 ([Jansen et al., 2005]) was replaced by the ADH1 promoter.” left out
# Colonies of freshly transformed cells were inoculated in 0.5 mL supplemented synthetic dextrose (SD) medium and incubated at 30°C in a gyratory shaker (Thermoshake-THO500, Gerhardt, Königswinter, Germany) at 200 rpm for 16-18 h. […] Light emission of yeasts was detected in a HIDEX plate luminometer (HIDEX, Turku, Finland) after injection of 100 µL freshly prepared luciferin substrate (1 mM D-luciferin, Promega) provided in 100 mM citric acid, pH 3 ([Leskinen et al., 2003]) for 5 s and was corrected for background. The LUC activity was normalized to the cell density (OD600) measured in 96-well flat plates (Sarstedt, Nümbrecht, Germany). […]
# RCAR8/PYL5-ABI2 = test system: T2, RCAR8/PYL5-ABI2; test: Yeast ABA signal pathway LUC reporter, RCAR8-ABI2; assay type: cell-based, Arabidopsis thaliana
# T2 construct: expressed in transfected cells; host or cells: yeast (LUC reporter strain)
# Protocol: as §1, §2
# RCAR11-ABI2 [2] = test system: T3, RCAR11-ABI2; test: In vitro phosphatase assay, ABI2 with RCAR11; assay type: biochemical, Arabidopsis thaliana; conditions: 100 nM ABI2, 200 nM RCAR11
# T3 construct: 6xHis (N); made in house; host or cells: Escherichia coli BL21
# Protocol: as §4
# wheat plants = test: Foliar administration and thermal imaging of leaf temperature, wheat; assay type: in vivo, Triticum aestivum; conditions: 100 μM, 24 h after administration
# Protocol: as §3
# ABI1 with RCAR11/PYR1 = test system: ABI1 with RCAR11/PYR1; design: method as in Frackenpohl et al., 2018; conditions: ref Frackenpohl et al., 2018; cited from earlier work
compound,measurement,setting,value
"CC(=C/C(=O)O)/C=C/C(O)(C(C)C)C1(C#N)CC1 (stereo not shown) [CCP1, (2Z,4E)-6-(1-cyanocyclopropyl)-3-methyl-6-hydroxy-7-methylocta-2,4-dienoic acid]",LUC reporter induction compared to mock-treated cells,"RCAR11-ABI2 [1]; 30 µM exogenous ligand, 16 h exposure",approximately eightfold
same,Activation of the ABA response compared to ABA,"RCAR11-ABI2 [1]; dose-dependent, 0.1-30 µM",comparable activity to ABA
same,Potency in reducing transpiration compared to ABA,Arabidopsis plants; 10 µM,more potent than 100 µM ABA
same,Higher leaf temperature,"Arabidopsis plants; 30 µM, nineteen days after administration",1.5 °C
same,Duration of persistent response,Arabidopsis plants; 10 and 30 µM ligand treatment,10 days
same,Potency relative to ABA,Arabidopsis plants; 10 and 30 µM ligand vs 100 µM ABA,more than tenfold
same,Duration of effect relative to ABA,Arabidopsis plants; 10 and 30 µM ligand vs ABA,approximately three times
same,Efficiency in minimizing transpiration compared to ABA,Arabidopsis plants; foliar application,by an order of magnitude more efficient than ABA
same,ABA concentration achieving a temperature increase similar to 10 µM of the CCP,Arabidopsis plants; one day after application,about 100 µM
same,Activity and persistence of minimized transpiration compared to ABA,"Arabidopsis plants; single application 100 µM, recorded for 19 days",more active and persistent than ABA
same,IC50 relative to ABA (fold higher),RCAR8-ABI2,around 10 fold
same,Statistical significance of RCAR1-mediated inhibition of ABI2 phosphatase activity vs ABA,RCAR1-ABI2; 0.003 µM,"ns (Otherwise, the difference is regarded as insignificant indicated as “ns”)"
same,Statistical significance of RCAR1-mediated inhibition of ABI2 phosphatase activity vs ABA,RCAR1-ABI2; 0.01 µM,s (P < 0.05 (one-way ANOVA) is considered as a significant difference and expressed as “s”)
same,Statistical significance of RCAR1-mediated inhibition of ABI2 phosphatase activity vs ABA,RCAR1-ABI2; 0.03 µM,s (P < 0.05 (one-way ANOVA) is considered as a significant difference and expressed as “s”)
same,Statistical significance of RCAR1-mediated inhibition of ABI2 phosphatase activity vs ABA,RCAR1-ABI2; 0.1 µM,s (P < 0.05 (one-way ANOVA) is considered as a significant difference and expressed as “s”)
same,IC50 relative to ABA (fold higher),RCAR1-ABI2; 100 nM ABI2 and 200 nM RCAR1,approximately 100 fold
same,Statistical significance of RCAR1-mediated inhibition of ABI2 phosphatase activity vs ABA,RCAR1-ABI2; 0.3 µM,s (P < 0.05 (one-way ANOVA) is considered as a significant difference and expressed as “s”)
same,Statistical significance of RCAR1-mediated inhibition of ABI2 phosphatase activity vs ABA,RCAR1-ABI2; 1 µM,s (P < 0.05 (one-way ANOVA) is considered as a significant difference and expressed as “s”)
same,Statistical significance of RCAR1-mediated inhibition of ABI2 phosphatase activity vs ABA,RCAR1-ABI2; 3 µM,s (P < 0.05 (one-way ANOVA) is considered as a significant difference and expressed as “s”)
same,Statistical significance of RCAR1-mediated inhibition of ABI2 phosphatase activity vs ABA,RCAR1-ABI2; 10 µM,s (P < 0.05 (one-way ANOVA) is considered as a significant difference and expressed as “s”)
same,Statistical significance of RCAR1-mediated inhibition of ABI2 phosphatase activity vs ABA,RCAR1-ABI2; 30 µM,s (P < 0.05 (one-way ANOVA) is considered as a significant difference and expressed as “s”)
same,Statistical significance of RCAR1-mediated inhibition of ABI2 phosphatase activity vs ABA,RCAR1-ABI2; 100 µM,s (P < 0.05 (one-way ANOVA) is considered as a significant difference and expressed as “s”)
same,Higher exogenous concentration required for reporter expression comparable to 1 µM ABA,RCAR1/PYL9-ABI2,approximately 30 x
same,Reporter induction relative to ABA,RCAR8/PYL5-ABI2; 1 µM exogenous ligand,approximately half the ABA induction
same,Higher level required for induction value comparable to 1 µM ABA,"RCAR8/PYL5-ABI2; yeast, RCAR8-ABI2",about 10 x
same,Inhibition of ABI2 compared to ABA,RCAR11-ABI2 [2],comparable to ABA
same,"Leaf temperature increase, activity compared to ABA",wheat plants,higher activity than ABA
same,Activity in in vitro inhibition of ABI1 phosphatase activity,ABI1 with RCAR11/PYR1,ABA-like activity
